Measurements reported in patent publication US8802597B2, “Herbicidal pyrimidines” (E I du Pont de Nemours and Company, priority 2003, dated 2014).

How the values were obtained:
Assay in all cases: Test C pre/postemergence
Assay type in all cases: in vivo
Settings in all cases: Preemergence
soybean (Glycine max) = tested on: soybean (Glycine max)
From the text: (§1) Seeds or nutlets of plant species selected from bermudagrass (Cynodon dactylon), Surinam grass (Brachiaria decumbens), cocklebur (Xanthium strumarium), corn (Zea mays), crabgrass (Digitaria sanguinalis), woolly cupgrass (Eriochloa villosa), giant foxtail (Setaria faberii), goosegrass (Eleusine indica), johnsongrass (Sorghum halepense), kochia (Kochia scoparia), lambsquarters (Chenopodium album), morningglory (Ipomoea coccinea), eastern black nightshade (Solanum ptycanthum), yellow nutsedge (Cyperus esculentus), pigweed (Amaranthus retroflexus), common ragweed (Ambrosia elatior), soybean (Glycine max), common (oilseed) sunflower (Helianthus annuus), and velvetleaf (Abutilon theophrasti) were planted and treated preemergence with test chemicals formulated in a non-phytotoxic solvent mixture which included a surfactant.
(§2) At the same time, plants selected from these crop and weed species and also winter barley (Hordeum vulgare), blackgrass (Alopecurus myosuroides), canarygrass (Phalaris minor), chickweed (Stellaria media), downy brome (Bromus tectorum), green foxtail (Setaria viridis), Italian ryegrass (Lolium multiflorum), wheat (Triticum aestivum), wild oat (Avena fatua) and windgrass (Apera spica-venti) were treated with postemergence applications of some of the test chemicals formulated in the same manner. Plants ranged in height from 2 to 18 cm (1- to 4-leaf stage) for postemergence treatments. Plant species in the flooded paddy test consisted of rice (Oryza sativa), umbrella sedge (Cyperus difformis), duck salad (Heteranthera limosa) and barnyardgrass (Echinochloa crus-galli) grown to the 2-leaf stage for testing. Treated plants and controls were maintained in a greenhouse for 12 to 14 days, after which time all species were compared to controls and visually evaluated. Plant response ratings, summarized in Table C, are based on a scale of 0 to 100 where 0 is no effect and 100 is complete control. A dash (-) response means no test result.

[1] = tested on: Surinam grass (Brachiaria decumbens)
From the text: as §1, §2

[2] = tested on: morningglory (Ipomoea coccinea)
From the text: as §1, §2

[3] = tested on: common ragweed (Ambrosia elatior)
From the text: as §1, §2

[4] = tested on: woolly cupgrass (Eriochloa villosa)
From the text: as §1, §2

[5] = tested on: giant foxtail (Setaria faberii)
From the text: as §1, §2

kochia (Kochia scoparia) = tested on: kochia (Kochia scoparia)
From the text: as §1, §2

[6] = tested on: common (oilseed) sunflower (Helianthus annuus)
From the text: as §1, §2

[7] = tested on: yellow nutsedge (Cyperus esculentus)
From the text: as §1, §2

[8] = tested on: johnsongrass (Sorghum halepense)
From the text: as §1, §2

[9] = tested on: pigweed (Amaranthus retroflexus)
From the text: as §1, §2

[10] = 62 g ai/ha, scale 0 to 100, 0 no effect, 100 complete control
[11] = 31 g ai/ha, scale 0 to 100, 0 no effect, 100 complete control
[12] = 16 g ai/ha, scale 0 to 100, 0 no effect, 100 complete control

SMILES: CCOC(=O)Cc1nc(C2CC2)nc(N)c1Br [Compound 12]
- Plant response rating, Soybean (soybean (Glycine max); [10]): 50
- Plant response rating, Soybean (soybean (Glycine max); 250 g ai/ha, scale 0 to 100): 70
- Plant response rating, Surinam Grass [1, 11]: 0
- Plant response rating, Surinam Grass ([1]; 125 g ai/ha, scale 0 to 100): 0
- Plant response rating, Surinam Grass ([1]; 250 g ai/ha, scale 0 to 100): 0
- Plant response rating, Morningglory [2, 11]: 30
- Plant response rating, Morningglory [2, 10]: 60
- Plant response rating, Morningglory ([2]; 125 g ai/ha, scale 0 to 100): 60
- Plant response rating, Morningglory ([2]; 250 g ai/ha, scale 0 to 100): 90
- Plant response rating, Ragweed [3, 10]: 10
- Plant response rating, Ragweed ([3]; 125 g ai/ha, scale 0 to 100): 20
- Plant response rating, Ragweed ([3]; 250 g ai/ha, scale 0 to 100): 85
- Plant response rating, Cupgrass, Woolly [4, 11]: 0
- Plant response rating, Cupgrass, Woolly [4, 10]: 0
- Plant response rating, Cupgrass, Woolly ([4]; 125 g ai/ha, scale 0 to 100): 10
- Plant response rating, Cupgrass, Woolly ([4]; 250 g ai/ha, scale 0 to 100): 100
- Plant response rating, Foxtail, Giant [5, 11]: 0
- Plant response rating, Foxtail, Giant [5, 10]: 0
- Plant response rating, Foxtail, Giant ([5]; 125 g ai/ha, scale 0 to 100): 0
- Plant response rating, Foxtail, Giant ([5]; 250 g ai/ha, scale 0 to 100): 0
- Plant response rating, Kochia (kochia (Kochia scoparia); [11]): 0
- Plant response rating, Kochia (kochia (Kochia scoparia); [10]): 50
- Plant response rating, Kochia (kochia (Kochia scoparia); 125 g ai/ha, scale 0 to 100): 50
- Plant response rating, Kochia (kochia (Kochia scoparia); 250 g ai/ha, scale 0 to 100): 85
- Plant response rating, Sunflower [6, 11]: 0
- Plant response rating, Sunflower [6, 10]: 0
- Plant response rating, Sunflower ([6]; 125 g ai/ha, scale 0 to 100): 0
- Plant response rating, Sunflower ([6]; 250 g ai/ha, scale 0 to 100): 85
- Plant response rating, Nutsedge, Yellow [7, 11]: 0
- Plant response rating, Nutsedge, Yellow [7, 10]: 0
- Plant response rating, Nutsedge, Yellow ([7]; 125 g ai/ha, scale 0 to 100): 0
- Plant response rating, Nutsedge, Yellow ([7]; 250 g ai/ha, scale 0 to 100): 0
- Plant response rating, Johnsongrass [8, 11]: 0
- Plant response rating, Johnsongrass [8, 10]: 0
- Plant response rating, Johnsongrass ([8]; 125 g ai/ha, scale 0 to 100): 5
- Plant response rating, Johnsongrass ([8]; 250 g ai/ha, scale 0 to 100): 5
- Plant response rating, Pigweed [9, 11]: 10
- Plant response rating, Pigweed [9, 10]: 50
- Plant response rating, Pigweed ([9]; 125 g ai/ha, scale 0 to 100): 50
- Plant response rating, Pigweed ([9]; 250 g ai/ha, scale 0 to 100): 85

SMILES: CCOC(=O)C(Cl)c1nc(C2CC2)nc(N)c1Br (stereo not shown) [Compound 31]
- Plant response rating, Soybean (soybean (Glycine max); [11]): 0
- Plant response rating, Soybean (soybean (Glycine max); [10]): 5
- Plant response rating, Soybean (soybean (Glycine max); 125 g ai/ha, scale 0 to 100): 15
- Plant response rating, Soybean (soybean (Glycine max); 250 g ai/ha, scale 0 to 100): 80
- Plant response rating, Surinam Grass [1, 11]: 0
- Plant response rating, Surinam Grass [1, 10]: 0
- Plant response rating, Surinam Grass ([1]; 125 g ai/ha, scale 0 to 100): 0
- Plant response rating, Surinam Grass ([1]; 250 g ai/ha, scale 0 to 100): 0
- Plant response rating, Morningglory [2, 11]: 0
- Plant response rating, Morningglory [2, 10]: 0
- Plant response rating, Morningglory ([2]; 125 g ai/ha, scale 0 to 100): 10
- Plant response rating, Morningglory ([2]; 250 g ai/ha, scale 0 to 100): 50
- Plant response rating, Ragweed [3, 11]: 5
- Plant response rating, Ragweed [3, 10]: 10
- Plant response rating, Ragweed ([3]; 125 g ai/ha, scale 0 to 100): 60
- Plant response rating, Ragweed ([3]; 250 g ai/ha, scale 0 to 100): 60
- Plant response rating, Cupgrass, Woolly [4, 11]: 0
- Plant response rating, Cupgrass, Woolly [4, 10]: 0
- Plant response rating, Cupgrass, Woolly ([4]; 125 g ai/ha, scale 0 to 100): 0
- Plant response rating, Cupgrass, Woolly ([4]; 250 g ai/ha, scale 0 to 100): 0
- Plant response rating, Foxtail, Giant [5, 11]: 0
- Plant response rating, Foxtail, Giant [5, 10]: 0
- Plant response rating, Foxtail, Giant ([5]; 125 g ai/ha, scale 0 to 100): 0
- Plant response rating, Foxtail, Giant ([5]; 250 g ai/ha, scale 0 to 100): 0
- Plant response rating, Kochia (kochia (Kochia scoparia); [11]): 0
- Plant response rating, Kochia (kochia (Kochia scoparia); [10]): 0
- Plant response rating, Kochia (kochia (Kochia scoparia); 125 g ai/ha, scale 0 to 100): 50
- Plant response rating, Kochia (kochia (Kochia scoparia); 250 g ai/ha, scale 0 to 100): 70
- Plant response rating, Sunflower [6, 11]: 0
- Plant response rating, Sunflower [6, 10]: 0
- Plant response rating, Sunflower ([6]; 125 g ai/ha, scale 0 to 100): 5
- Plant response rating, Sunflower ([6]; 250 g ai/ha, scale 0 to 100): 70
- Plant response rating, Nutsedge, Yellow [7, 11]: 0
- Plant response rating, Nutsedge, Yellow [7, 10]: 0
- Plant response rating, Nutsedge, Yellow ([7]; 125 g ai/ha, scale 0 to 100): 0
- Plant response rating, Nutsedge, Yellow ([7]; 250 g ai/ha, scale 0 to 100): 0
- Plant response rating, Johnsongrass [8, 11]: 0
- Plant response rating, Johnsongrass [8, 10]: 0
- Plant response rating, Johnsongrass ([8]; 125 g ai/ha, scale 0 to 100): 0
- Plant response rating, Johnsongrass ([8]; 250 g ai/ha, scale 0 to 100): 5
- Plant response rating, Pigweed [9, 11]: 10
- Plant response rating, Pigweed [9, 10]: 30
- Plant response rating, Pigweed ([9]; 125 g ai/ha, scale 0 to 100): 35
- Plant response rating, Pigweed ([9]; 250 g ai/ha, scale 0 to 100): 40

SMILES: Nc1nc(C2CC2)nc(C(=O)[O-])c1Cl.[Na+] [Compound 77, 6-amino-5-chloro-2-cyclopropyl-4-pyrimidinecarboxylic acid monosodium salt]
- plant injury at 31 g/ha (soybean (Glycine max); Glycine max, pre-emergence, 31 g ai/ha, scale 0 to 100, 0 no effect, 100 complete control, read-out: Plant response rating, Soybean): 100%
- plant injury at 62 g/ha (soybean (Glycine max); Glycine max, pre-emergence, 62 g ai/ha, scale 0 to 100, 0 no effect, 100 complete control, read-out: Plant response rating, Soybean): 100%
- Plant response rating, Soybean (soybean (Glycine max); [12]): 40
- Plant response rating, Surinam Grass [1, 12]: 0
- pest or weed control at 31 g/ha ([1]; Urochloa decumbens, pre-emergence, 31 g ai/ha, scale 0 to 100, 0 no effect, 100 complete control, read-out: Plant response rating, Surinam Grass): 0%
- pest or weed control at 62 g/ha ([1]; Urochloa decumbens, pre-emergence, 62 g ai/ha, scale 0 to 100, 0 no effect, 100 complete control, read-out: Plant response rating, Surinam Grass): 0%
- Plant response rating, Morningglory [2, 12]: 5
- Plant response rating, Morningglory [2, 11]: 50
- Plant response rating, Morningglory [2, 10]: 50
- Plant response rating, Morningglory ([2]; 125 g ai/ha, scale 0 to 100): 75
- pest or weed control at 31 g/ha ([3]; Ambrosia artemisiifolia, pre-emergence, 31 g ai/ha, scale 0 to 100, 0 no effect, 100 complete control, read-out: Plant response rating, Ragweed): 0%
- pest or weed control at 62 g/ha ([3]; Ambrosia artemisiifolia, pre-emergence, 62 g ai/ha, scale 0 to 100, 0 no effect, 100 complete control, read-out: Plant response rating, Ragweed): 50%
- Plant response rating, Ragweed [3, 12]: 0
- pest or weed control at 31 g/ha ([4]; Eriochloa villosa, pre-emergence, 31 g ai/ha, scale 0 to 100, 0 no effect, 100 complete control, read-out: Plant response rating, Cupgrass, Woolly): 0%
- pest or weed control at 62 g/ha ([4]; Eriochloa villosa, pre-emergence, 62 g ai/ha, scale 0 to 100, 0 no effect, 100 complete control, read-out: Plant response rating, Cupgrass, Woolly): 0%
- pest or weed control at 125 g/ha ([4]; Eriochloa villosa, pre-emergence, 125 g ai/ha, scale 0 to 100, read-out: Plant response rating, Cupgrass, Woolly): 0%
- Plant response rating, Cupgrass, Woolly [4, 12]: 0
- Plant response rating, Foxtail, Giant [5, 12]: 0
- pest or weed control at 31 g/ha ([5]; Setaria faberi, pre-emergence, 31 g ai/ha, scale 0 to 100, 0 no effect, 100 complete control, read-out: Plant response rating, Foxtail, Giant): 0%
- pest or weed control at 62 g/ha ([5]; Setaria faberi, pre-emergence, 62 g ai/ha, scale 0 to 100, 0 no effect, 100 complete control, read-out: Plant response rating, Foxtail, Giant): 0%
- pest or weed control at 125 g/ha ([5]; Setaria faberi, pre-emergence, 125 g ai/ha, scale 0 to 100, read-out: Plant response rating, Foxtail, Giant): 0%
- pest or weed control at 125 g/ha (kochia (Kochia scoparia); Bassia scoparia, pre-emergence, 125 g ai/ha, scale 0 to 100, read-out: Plant response rating, Kochia): 80%
- Plant response rating, Kochia (kochia (Kochia scoparia); [12]): 20
- Plant response rating, Kochia (kochia (Kochia scoparia); [10]): 50
- pest or weed control at 31 g/ha ([6]; Helianthus annuus, pre-emergence, 31 g ai/ha, scale 0 to 100, 0 no effect, 100 complete control, read-out: Plant response rating, Sunflower): 50%
- pest or weed control at 62 g/ha ([6]; Helianthus annuus, pre-emergence, 62 g ai/ha, scale 0 to 100, 0 no effect, 100 complete control, read-out: Plant response rating, Sunflower): 100%
- Plant response rating, Sunflower [6, 12]: 20
- pest or weed control at 31 g/ha ([7]; Cyperus, pre-emergence, 31 g ai/ha, scale 0 to 100, 0 no effect, 100 complete control, read-out: Plant response rating, Nutsedge, Yellow): 0%
- pest or weed control at 62 g/ha ([7]; Cyperus, pre-emergence, 62 g ai/ha, scale 0 to 100, 0 no effect, 100 complete control, read-out: Plant response rating, Nutsedge, Yellow): 0%
- Plant response rating, Nutsedge, Yellow [7, 12]: 0
- Plant response rating, Johnsongrass [8, 12]: 0
- Plant response rating, Johnsongrass [8, 10]: 0
- Plant response rating, Johnsongrass ([8]; 125 g ai/ha, scale 0 to 100): 0
- pest or weed control at 31 g/ha ([8]; Sorghum halepense, pre-emergence, 31 g ai/ha, scale 0 to 100, 0 no effect, 100 complete control, read-out: Plant response rating, Johnsongrass): 0%
- pest or weed control at 31 g/ha ([9]; Amaranthus retroflexus, pre-emergence, 31 g ai/ha, scale 0 to 100, 0 no effect, 100 complete control, read-out: Plant response rating, Pigweed): 60%
- pest or weed control at 62 g/ha ([9]; Amaranthus retroflexus, pre-emergence, 62 g ai/ha, scale 0 to 100, 0 no effect, 100 complete control, read-out: Plant response rating, Pigweed): 65%
- Plant response rating, Pigweed [9, 12]: 60
